Reference: patent publication US6346273B1, “Process for solubilizing pharmaceutically active ingredients in water and in aqueous vehicles” (Farmigea S.p.A., priority 1997, dated 2002)

Legend:
[1] = Amounts of drugs solubilized at 20° C. in water, with PVP, with PEG-GTR and with the method of the invention; format: physicochemical
Text: In this table, the solubility of each drug in water is compared with the solubility obtainable with the complexation method (with PVP) and with the solubility obtainable with the micellar solubilization method with surfactants (with PEG-GTR). In all cases it is evident that the combined method according to the invention affords solubility increases that are largely greater than the sum of the increases obtainable with each one of the prior art methods.

[2] = co-precipitated with PVP having M.W.=50,000; cited from earlier work
[3] = PVP (M.W. = 10,000) 18.0 % w/w in water

Question: What does the source list for `CN1CCN(c2c(F)cc3c(=O)c(C(=O)O)cn4c3c2SCC4)CC1` [Rufloxacin]?
Answer: Amt. of drug solubilized at 20° C. (% w/w) ([1]; PEG-GTR 1.0 % w/w in water): 0.03 % w/w; Amt. of drug solubilized at 20° C. (% w/w) ([1]; PVP (M.W. = 44,000-54,000) 15.0 % w/w in water): 0.24 % w/w; Amt. of drug solubilized at 20° C. (% w/w) ([1]; PVP (M.W. = 44,000-54,000) + PEG-GTR (15.0 + 1.0 % w/w), method of the invention): 0.30 % w/w; Amt. of drug solubilized at 20° C. (% w/w) ([1]; water, solubilizing agent none): 0.029 % w/w

Question: For `C[C@@H]1O[C@@H](OC[C@H]2O[C@@H](Oc3c(-c4ccc(O)c(O)c4)oc4cc(O)cc(O)c4c3=O)[C@H](O)[C@@H](O)[C@@H]2O)[C@H](O)[C@H](O)[C@H]1O` [Rutin], which “Amt. of drug solubilized at 20° C. (% w/w)” value ([1]; PEG-GTR 10.0 % w/w in water) is on record?
Answer: 0.074 % w/w

Question: And the “Amt. of drug solubilized at 20° C. (% w/w)” value ([1]; PVP (M.W. = 2000-3000) 30.0 % w/w in water)?
Answer: 0.37 % w/w

Question: What about the “Amt. of drug solubilized at 20° C. (% w/w)” value ([1]; PVP (M.W. = 2000-3000) + PEG-GTR (30.0 + 10.0 % w/w), method of the invention) of the same molecule?
Answer: 1.0 % w/w

Question: What about the “Amt. of drug solubilized at 20° C. (% w/w)” value ([1]; water, solubilizing agent none) of the same molecule?
Answer: 0.0125 % w/w

Question: Which results are given for `C=C[C@@]1(C)CC(=O)[C@]2(O)[C@@]3(C)[C@@H](O)CCC(C)(C)[C@@H]3[C@H](O)[C@H](OC(C)=O)[C@@]2(C)O1` [Forskolin]?
Answer: Amt. of drug solubilized at 20° C. (% w/w) ([1]; PEG-GTR 10.0 % w/w in water): 0.05 % w/w; Amt. of drug solubilized at 20° C. (% w/w) ([1]; PVP (M.W. = 10,000) 30.0 % w/w in water): 0.03 % w/w; Amt. of drug solubilized at 20° C. (% w/w) ([1]; PVP (M.W. = 10,000) + PEG-GTR (30.0 + 10.0 % w/w), method of the invention): 0.20 % w/w; Amt. of drug solubilized at 20° C. (% w/w) ([1]; water, solubilizing agent none): 0.0029 % w/w

Question: Which results are given for `CC(=O)OCC(=O)[C@@]12OC(C)(C)O[C@@H]1C[C@H]1[C@@H]3CC(C=O)=C4C=C(OCCCl)CC[C@]4(C)[C@@]3(F)[C@@H](O)C[C@@]12C` [Formocortal]?
Answer: Amt. of drug solubilized at 20° C. (% w/w) ([1]; PEG-GTR 5.0 % w/w in water): 0.0252 % w/w; Amt. of drug solubilized at 20° C. (% w/w) [1, 3]: 0.0022 % w/w; Amt. of drug solubilized at 20° C. (% w/w) ([1]; PVP (M.W. = 10,000) + PEG-GTR (18.0 + 5.0 % w/w), method of the invention): 0.10 % w/w; Amt. of drug solubilized at 20° C. (% w/w) ([1]; water, solubilizing agent none): 0.008 % w/w

Question: With `COc1ccc2c(C(=S)N(C)CC(=O)O)cccc2c1C(F)(F)F` [Tolrestat] as the molecule, how does the “Amt. of drug solubilized at 20° C. (% w/w)” value ([1]; PEG-GTR 6.0 % w/w in water) read?
Answer: 0.60 % w/w

Question: And the “Amt. of drug solubilized at 20° C. (% w/w)” value ([1]; PEG-GTR 8.0 % w/w in water)?
Answer: 0.80 % w/w

Question: And the “Amt. of drug solubilized at 20° C. (% w/w)” value ([1]; PEG-GTR 10.0 % w/w in water)?
Answer: 1.20 % w/w

Question: What about the “Amt. of drug solubilized at 20° C. (% w/w)” value ([1]; PVP (M.W. 10,000) + PEG-GTR (18.0 + 8.0 % w/w), method of the invention) of the same molecule?
Answer: 2.0 % w/w

Question: And the “Amt. of drug solubilized at 20° C. (% w/w)” value [1, 3]?
Answer: 0.05 % w/w

Question: And the “Amt. of drug solubilized at 20° C. (% w/w)” value ([1]; PVP (M.W. = 10,000) + PEG-GTR (18.0 + 6.0 % w/w), method of the invention)?
Answer: 1.50 % w/w

Question: What about the “Amt. of drug solubilized at 20° C. (% w/w)” value ([1]; PVP (M.W. = 10,000) + PEG-GTR (18.0 + 10.0 % w/w), method of the invention) of the same molecule?
Answer: 3.0 % w/w

Question: What about the solubility in water ([1]; at 20° C.) of the same molecule?
Answer: 0.75 mg/100 g of water

Question: What about the “solubility when treated with complexation with PVP” value ([1]; complexation with PVP) of the same molecule?
Answer: 0.05 % (w/w)

Question: And the “solubility by means of surface-active agents” value ([1]; optimized choice of surfactant and amounts)?
Answer: ~1.2 % (w/w)

Question: And the original solubility ([1]; water, no solubilization technique)?
Answer: 0.00075 % (w/w)

Question: What about the “Amt. of drug solubilized at 20° C. (% w/w)” value ([1]; water, solubilizing agent none) of the same molecule?
Answer: 0.00075 % w/w

Question: Which “Amt. of drug solubilized at 20° C. (% w/w)” value ([1]; PEG-GTR 2.5 % w/w in water) does the source give for `CN1C(C(=O)Nc2ccccn2)=C(O)c2ccccc2S1(=O)=O` [Piroxicam] here?
Answer: 0.13 % w/w

Question: And the “Amt. of drug solubilized at 20° C. (% w/w)” value ([1]; PVP (M.W. = 10,000) 20.0 % w/w in water)?
Answer: 0.081 % w/w

Question: What about the “Amt. of drug solubilized at 20° C. (% w/w)” value ([1]; PVP (M.W. = 10,000) + PEG-GTR (20.0 + 2.5 % w/w), method of the invention) of the same molecule?
Answer: 0.50 % w/w

Question: What about the “Amt. of drug solubilized at 20° C. (% w/w)” value ([1]; water, solubilizing agent none) of the same molecule?
Answer: 0.0017 % w/w

Question: With `O=C1NC(=O)C(c2ccccc2)(c2ccccc2)N1` [phenytoin] as the molecule, how does the solutions stability [2] read?
Answer: maximum of two years
